The source made the active and inactive calls. The calls are words filed in the database; no cut-off is given here.
What was measured:
Procathepsin L [1] = target: T1, Procathepsin L (Homo sapiens, UniProt P07711); assay: Inhibition of human cathepsin-L using Z-Phe-Arg-AMC as substrate by fluorometric assay
Target sequence in this assay (P07711 whole entry): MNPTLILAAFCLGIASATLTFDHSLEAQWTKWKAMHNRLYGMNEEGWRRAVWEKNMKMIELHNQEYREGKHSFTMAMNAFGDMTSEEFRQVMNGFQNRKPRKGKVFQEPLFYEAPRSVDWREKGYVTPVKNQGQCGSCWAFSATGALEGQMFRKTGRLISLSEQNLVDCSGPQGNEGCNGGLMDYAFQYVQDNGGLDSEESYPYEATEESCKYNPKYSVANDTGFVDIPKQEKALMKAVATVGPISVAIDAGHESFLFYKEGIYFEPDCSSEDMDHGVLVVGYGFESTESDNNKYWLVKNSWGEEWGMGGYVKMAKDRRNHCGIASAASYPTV

Cathepsin B [2] = target: T2, Cathepsin B (Homo sapiens, UniProt P07858); assay: Inhibition of human cathepsin-B using Z-Phe-Arg-AMC as substrate by fluorometric assay
Falcipain 2 = target: T3, Falcipain 2 (Plasmodium falciparum, UniProt Q9N6S8); assay: Inhibition of Plasmodium falciparum falcipain 2 using Z-Phe-Arg-AMC as substrate by fluorometric assay
T3 sequence (Q9N6S8 whole entry): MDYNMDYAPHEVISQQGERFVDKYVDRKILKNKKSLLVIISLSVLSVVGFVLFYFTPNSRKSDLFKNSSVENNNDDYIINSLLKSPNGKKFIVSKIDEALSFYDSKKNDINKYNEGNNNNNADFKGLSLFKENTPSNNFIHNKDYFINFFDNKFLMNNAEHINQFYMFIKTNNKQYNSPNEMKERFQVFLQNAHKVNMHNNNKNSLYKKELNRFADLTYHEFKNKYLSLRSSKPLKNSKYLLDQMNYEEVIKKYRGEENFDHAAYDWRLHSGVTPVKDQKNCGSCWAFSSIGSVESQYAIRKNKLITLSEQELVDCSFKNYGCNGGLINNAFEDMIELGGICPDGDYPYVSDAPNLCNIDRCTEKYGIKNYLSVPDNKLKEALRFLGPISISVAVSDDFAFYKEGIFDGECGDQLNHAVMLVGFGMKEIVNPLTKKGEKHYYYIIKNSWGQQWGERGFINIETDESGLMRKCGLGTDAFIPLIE

Leishmania major [3] = assay: Antileishmanial activity against Leishmania major promastigotes at 20 uM; format: functional, organism-based
Leishmania major [4] = assay: Antileishmanial activity against Leishmania major promastigotes; format: functional, organism-based
Leishmania major [5] = assay: Antileishmanial activity against luciferase-fused Leishmania major amastigotes infected in BMDM after 24 hrs by luminescence assay; format: functional, organism-based
J774 = assay: Cytotoxicity against mouse J774 cells; format: cell-based
[6] = target: T4, Cathepsin B-like protease (Leishmania major, UniProt P90627); assay: Inhibition of Leishmania major MHOM/IL/81/FE/BNI His6-tagged CPC expressed in Pichia pastoris using Cbz-Phe-Arg-AMC as substrate by fluorescence spectrometric method; details: read-out: Ki(app)
T4 sequence (P90627 whole entry): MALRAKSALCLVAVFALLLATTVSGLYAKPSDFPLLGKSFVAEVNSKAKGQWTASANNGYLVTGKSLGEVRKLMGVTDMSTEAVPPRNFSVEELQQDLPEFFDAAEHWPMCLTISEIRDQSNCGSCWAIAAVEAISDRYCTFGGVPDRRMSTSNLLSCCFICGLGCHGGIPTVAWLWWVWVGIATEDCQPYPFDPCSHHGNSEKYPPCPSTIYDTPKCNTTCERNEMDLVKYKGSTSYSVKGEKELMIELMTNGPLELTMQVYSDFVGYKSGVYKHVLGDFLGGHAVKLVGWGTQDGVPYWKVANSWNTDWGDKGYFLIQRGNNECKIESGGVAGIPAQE

[7] = Inhibition of Leishmania mexicana cathepsin L-like protease CPB2.8 using Z-Phe-Arg-AMC as substrate by fluorometric assay
Rhodesain = Rhodesain (Trypanosoma brucei rhodesiense, UniProt Q95PM0); assay: Inhibition of Trypanosoma brucei rhodesiense rhodesain using Z-Phe-Arg-AMC as substrate by fluorometric assay
Rhodesain, sequence (Q95PM0 whole entry): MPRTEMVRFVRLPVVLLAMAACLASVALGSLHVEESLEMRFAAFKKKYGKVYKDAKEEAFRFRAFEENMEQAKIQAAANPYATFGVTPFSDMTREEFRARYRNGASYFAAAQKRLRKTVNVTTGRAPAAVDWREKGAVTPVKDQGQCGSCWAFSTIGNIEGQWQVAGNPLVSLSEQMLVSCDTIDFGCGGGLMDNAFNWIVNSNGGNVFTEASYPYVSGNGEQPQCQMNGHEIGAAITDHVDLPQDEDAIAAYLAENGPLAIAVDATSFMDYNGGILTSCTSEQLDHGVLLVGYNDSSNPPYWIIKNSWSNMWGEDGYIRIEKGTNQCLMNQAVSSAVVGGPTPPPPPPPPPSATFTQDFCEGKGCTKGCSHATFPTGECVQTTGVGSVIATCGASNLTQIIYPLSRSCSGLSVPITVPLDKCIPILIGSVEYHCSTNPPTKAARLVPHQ

Procathepsin L [8] = target: T1, Procathepsin L; assay: Inhibition of human cathepsin-L at 20 uM using Z-Phe-Arg-AMC as substrate by fluorometric assay relative to control
Target sequence in this assay (P07711 114-333 limits assumed): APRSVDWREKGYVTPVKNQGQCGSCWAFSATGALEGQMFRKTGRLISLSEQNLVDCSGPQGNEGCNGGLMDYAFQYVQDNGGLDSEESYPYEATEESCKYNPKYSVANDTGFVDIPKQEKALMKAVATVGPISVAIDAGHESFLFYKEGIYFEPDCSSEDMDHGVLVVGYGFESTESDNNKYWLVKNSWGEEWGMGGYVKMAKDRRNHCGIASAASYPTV

Cathepsin B [9] = target: T2, Cathepsin B; assay: Inhibition of human cathepsin-B at 20 uM using Z-Phe-Arg-AMC as substrate by fluorometric assay relative to control
[10] = target: Cruzipain (Trypanosoma cruzi) (UniProt P25779); assay: Inhibition of Trypanosoma cruzi cruzain at 20 uM using Z-Phe-Arg-AMC as substrate by fluorometric assay relative to control
Cruzipain (Trypanosoma cruzi), sequence (P25779 123-467 limits assumed): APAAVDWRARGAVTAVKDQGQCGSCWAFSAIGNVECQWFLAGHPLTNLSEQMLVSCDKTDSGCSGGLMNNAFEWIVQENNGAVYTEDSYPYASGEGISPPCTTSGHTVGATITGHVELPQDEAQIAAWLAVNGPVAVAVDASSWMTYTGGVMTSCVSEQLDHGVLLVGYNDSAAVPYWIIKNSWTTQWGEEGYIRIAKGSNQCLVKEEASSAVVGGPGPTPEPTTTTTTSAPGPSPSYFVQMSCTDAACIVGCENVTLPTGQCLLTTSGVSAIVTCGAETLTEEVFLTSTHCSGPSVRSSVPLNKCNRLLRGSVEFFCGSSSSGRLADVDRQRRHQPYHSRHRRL

[11] = target: T5, Falcipain 2 (Plasmodium falciparum) (UniProt Q9N6S8); assay: Inhibition of Plasmodium falciparum falcipain 2 at 20 uM using Z-Phe-Arg-AMC as substrate by fluorometric assay relative to control
T5 sequence (whole entry): T3 sequence (Q9N6S8 whole entry)

Ki (Procathepsin L [1]) [µM]	Ki (Cathepsin B [2]) [µM]	Ki (Falcipain 2) [µM]	Compound	Activity (Leishmania major [3])	EC50 (Leishmania major [4]) [µM]	EC50 (Leishmania major [5]) [µM]	Activity (J774) [µM]	Ki [6] [µM]	Ki [7] [µM]	Ki (Rhodesain) [µM]	inhibition (Procathepsin L [8])	inhibition (Cathepsin B [9])	inhibition [10]	inhibition [11]
0.4	114	0.4	CC(C)C[C@H](NC(=O)OC(C)(C)C)C(=O)N1CCC[C@H]1C(=O)N1[C@@H](C(=O)OCc2ccccc2)[C@@H]1C(=O)OCc1ccccc1	inactive										
			CC(C)C[C@H](NC(=O)OC(C)(C)C)C(=O)N1CCC[C@@H]1C(=O)N1[C@@H](C(=O)OCc2ccccc2)[C@@H]1C(=O)OCc1ccccc1		37.4	2.3	> 250	18.2	3.8	1.7	inactive	inactive	inactive	inactive

From ChEMBL document CHEMBL4270566, “New aziridine-based inhibitors of cathepsin L-like cysteine proteases with selectivity for the Leishmania cysteine protease LmCPB2.8” (Eur J Med Chem, 2018)
